{"source": "patent US20250064845A1", "about": "“COMPOSITION COMPRISING FLAVIN ADENINE DINUCLEOTIDE (FAD), L-GSH, ATP AND MYRISTIC ACID, ALONE OR WITH A DRUG” (BIO EVEN, priority 2023, published 2025)", "key": {"[1]": {"test_system": "H22 transplanted tumor", "settings": "H22 tumor-bearing mice", "description": "Body weight was weighed every three days.\n• Species: Rodent; Strain: BALB/c mice; Grade: SPF; Gender: Female; Age: 5-6 weeks.\n• The H22 mouse hepatoma cell line was purchased from Wuhan Procell Life Technology Co., Ltd. (Wuhan, China, Contract No.: XD-000-2022-03-30-0029) and stored at −80° C. after arrival.\nAscitic tumor fluid was then diluted with matrigel to adjust the cell concentration to 2*10^7 cells/mL."}, "[2]": {"test_system": "Pan02 transplanted pancreatic tumor", "settings": "Pan02 tumor-bearing mice", "method": "Each mouse was subcutaneously treated with Pan02 cell suspension (5*10^5 cells) in the right axilla of the forelimb. […] Body weight was weighed every three days. The volume of the solid tumor was measured using a digital caliper every three days. The survival of animals was monitored and recorded daily.\n• The Pan02 mouse pancreatic cancer line was purchased from Shanghai Enzyme Research Biotechnology Co., Ltd. (Shanghai, China, Cell line No.: CC-Y2144) and stored at −80° C. after arrival. The Pan02 cells were cultured in DMEM supplemented with 10% FBS (v/v), 100 U/ml penicillin G (Sigma-Aldrich, USA), and 100 μg/mL streptomycin (Sigma-Aldrich, USA). The cultures were maintained in a humidified incubator at 37° C. and 5% CO2.\n• Different test drugs were administered intravenously (i.v.) and intraperitoneally (i.p.) once every other day at 10:00 am. A or B drugs were injected into the tail vein first, and 5-FU was injected intraperitoneally 24 h later.\n• Each mouse was subcutaneously treated with 0.1 mL cell suspension (5*10^5 cells) in the right axilla of the forelimb. When the tumor size increases to 100 mm^3-150 mm^3, mice were randomly divided into treatment groups: the model group (n=10), the A group (n=10), the B group (n=10), the 5-FU group (1.5 mg/kg, n=10), the A+5-FU group (1.5 mg/kg, n=10), the B+5-FU group (1.5 mg/kg, n=10) (Table 1).\n• Body weight was weighed every three days. The length and width of the solid tumor was measured with a digital caliper every three days. Tumor volume was calculated by the modified ellipsoidal formula: V =n/6 x (length x width2). The survival time of animals was monitored and recorded daily. […] The percent survival (%) was calculated using the following equations: percent survival (%)=[(10-numbers of mice died in each group)/10]*100%."}}}
{"smiles": "O=c1[nH]cc(F)c(=O)[nH]1", "note": "[Composition 5-FU, 5-fluorouracil]", "values": [{"measurement": "mortality rate of mice on the 22nd day", "setting": "[1]; 5-FU alone 2.5 mg/kg i.p. once every two days", "result": 30, "unit": "%"}, {"measurement": "median survival time", "setting": "[1]; 5-FU alone 2.5 mg/kg, longer survival defaulted as 22 days", "result": 22, "unit": "days"}, {"measurement": "tumor volume / antitumor effect", "setting": "[2]; 82 days, 5-FU 1.5 mg/kg", "result": "significantly decreased tumor volume"}, {"measurement": "mortality rate of mice on the 82nd day", "setting": "[2]; A or B 100 μL i.v., 5-FU 1.5 mg/kg i.p., once every other day, n=10", "result": 90, "unit": "%"}, {"measurement": "median survival time", "setting": "[2]; A or B 100 μL i.v., 5-FU 1.5 mg/kg i.p., once every other day, test 82 days, longer survival defaulted as 82 days", "result": 53.5, "unit": "days"}]}
